Measured values published in PubChem BioAssay (NCI).
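In this assay, cells in 96-well plates receive the compound at five concentrations for 48 hours. Endpoints are linearly interpolated between the surrounding concentrations. Definition used: TGI = concentration required for complete inhibition of growth.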

Columns and labels:
Assay in all cases: growth of human tumour cells (NCI), 48 h
[1] = system: OVCAR-4 ovarian
[2] = system: SNB-19 CNS
[3] = system: SN12C renal
[4] = system: IGROV1 ovarian
[5] = system: TK-10 renal
[6] = system: DMS 273 small cell lung
[7] = system: A498 renal
[8] = system: M19-MEL melanoma
[9] = system: HCT-116 colon
[10] = system: HCT-15 colon
[11] = system: 786-0 renal
[12] = system: A549 NSCLC
[13] = system: DMS 114 small cell lung
[14] = system: LXFL 529 NSCLC
[15] = system: SF-268 CNS
[16] = system: SW-620 colon
[17] = system: OVCAR-8 ovarian
[18] = system: CCRF-CEM leukemia
[19] = system: K-562 leukemia
[20] = system: UO-31 renal
[21] = system: EKVX NSCLC
[22] = system: UACC-62 melanoma
[23] = system: RXF 393 renal
[24] = system: LOX IMVI melanoma
[25] = system: COLO 205 colon
[26] = system: HCC-2998 colon
[27] = system: HOP-18 NSCLC
[28] = system: SK-MEL-5 melanoma
[29] = system: NCI-H460 lung
[30] = system: RPMI-8226 leukemia
[31] = system: DLD-1 colon
[32] = system: SF-539 CNS
[33] = system: UACC-257 melanoma
[34] = system: SNB-75 CNS
[35] = system: NCI-H23 lung
[36] = system: HT29 colon
[37] = system: SNB-78 CNS
[38] = system: KM12 colon
[39] = system: HL-60(TB) leukemia
[40] = system: HOP-92 NSCLC
[41] = system: SK-OV-3 ovarian
[42] = system: MOLT-4 leukemia
[43] = system: SK-MEL-28 melanoma
[44] = system: SF-295 CNS
[45] = system: MALME-3M melanoma
[46] = system: OVCAR-3 ovarian
[47] = system: CAKI-1 renal
[48] = system: NCI-H522 lung
[49] = system: RXF-631 renal
[50] = system: NCI-H226 lung
[51] = system: SK-MEL-2 melanoma
[52] = system: M14 melanoma
[53] = system: ACHN renal
[54] = system: SR leukemia
[55] = system: U251 CNS
[56] = system: XF 498 CNS
[57] = system: KM20L2 colon
[58] = system: OVCAR-5 ovarian
[59] = system: HOP-62 NSCLC

For `Nc1ncnc2c1ncn2CC(O)CO` (stereo unspecified), the TGI [1] was > 100 µM, the TGI [2] was > 100 µM and the TGI [3] was > 100 µM. The TGI [4] was > 100 µM, the TGI [5] was > 100 µM and the TGI [6] was > 100 µM. For the same molecule, the TGI [7] was > 100 µM, the TGI [8] was > 100 µM and the TGI [9] was > 100 µM. The TGI [10] was > 100 µM, the TGI [11] was > 100 µM and the TGI [12] was > 100 µM. For the same molecule, the TGI [13] was > 100 µM, the TGI [14] was > 100 µM and the TGI [15] was > 100 µM. The TGI [16] was > 100 µM, the TGI [17] was > 100 µM and the TGI [18] was > 100 µM. For the same molecule, the TGI [19] was > 100 µM, the TGI [20] was > 100 µM and the TGI [21] was > 100 µM. For the same molecule, the TGI [22] was > 100 µM, the TGI [23] was > 100 µM and the TGI [24] was > 100 µM. The TGI [25] was > 100 µM, the TGI [26] was > 100 µM and the TGI [27] was > 100 µM. For the same molecule, the TGI [28] was > 100 µM, the TGI [29] was > 100 µM and the TGI [30] was > 100 µM. For the same molecule, the TGI [31] was > 100 µM, the TGI [32] was > 100 µM and the TGI [33] was > 100 µM. The TGI [34] was > 100 µM, the TGI [35] was > 100 µM and the TGI [36] was > 100 µM. For the same molecule, the TGI [37] was > 100 µM, the TGI [38] was > 100 µM and the TGI [39] was > 100 µM. For the same molecule, the TGI [40] was > 100 µM, the TGI [41] was > 100 µM and the TGI [42] was > 100 µM. The TGI [43] was > 100 µM, the TGI [44] was > 100 µM and the TGI [45] was > 100 µM. For the same molecule, the TGI [46] was > 100 µM, the TGI [47] was > 100 µM and the TGI [48] was > 100 µM. The TGI [49] was > 100 µM, the TGI [50] was > 100 µM and the TGI [51] was > 100 µM. For the same molecule, the TGI [52] was > 100 µM.
With `Cc1ccccc1NC(=O)C1C(=O)N(c2ccccc2C)C(=O)/C1=N\NC(N)=S` (stereo unspecified) the TGI [2] was > 100 µM, the TGI [3] was > 100 µM and the TGI [4] was > 100 µM. For the same molecule, the TGI [53] was > 100 µM, the TGI [5] was > 100 µM and the TGI [6] was > 100 µM. The TGI [9] was > 100 µM, the TGI [11] was > 100 µM and the TGI [12] was > 100 µM. For the same molecule, the TGI [54] was > 100 µM, the TGI [14] was > 100 µM and the TGI [15] was > 100 µM. The TGI [16] was > 100 µM, the TGI [18] was > 100 µM and the TGI [19] was > 100 µM. For the same molecule, the TGI [20] was > 100 µM, the TGI [21] was > 100 µM and the TGI [22] was > 100 µM. For the same molecule, the TGI [24] was > 100 µM, the TGI [30] was > 100 µM and the TGI [31] was > 100 µM. For the same molecule, the TGI [55] was > 100 µM, the TGI [32] was > 100 µM and the TGI [33] was > 100 µM. The TGI [34] was > 100 µM, the TGI [56] was > 100 µM and the TGI [35] was > 100 µM. The TGI [36] was > 100 µM, the TGI [38] was > 100 µM and the TGI [39] was > 100 µM. For the same molecule, the TGI [40] was > 100 µM, the TGI [41] was > 100 µM and the TGI [42] was > 100 µM. For the same molecule, the TGI [43] was > 100 µM, the TGI [44] was > 100 µM and the TGI [45] was > 100 µM. For the same molecule, the TGI [46] was > 100 µM, the TGI [47] was > 100 µM and the TGI [48] was > 100 µM. The TGI [49] was > 100 µM, the TGI [50] was > 100 µM and the TGI [51] was > 100 µM. For the same molecule, the TGI [52] was > 100 µM and the TGI [57] was > 100 µM.
For `FC(F)(F)c1cc(C2SCc3nc4ccccc4n32)cc(C(F)(F)F)c1` (stereo unspecified), the TGI [1] was > 100 µM, the TGI [2] was > 100 µM and the TGI [58] was > 100 µM. The TGI [3] was > 100 µM, the TGI [4] was > 100 µM and the TGI [53] was > 100 µM. The TGI [5] was > 100 µM, the TGI [6] was > 100 µM and the TGI [7] was > 100 µM. For the same molecule, the TGI [11] was > 100 µM, the TGI [14] was > 100 µM and the TGI [15] was > 100 µM. The TGI [59] was > 100 µM, the TGI [17] was > 100 µM and the TGI [18] was > 100 µM. The TGI [19] was > 100 µM, the TGI [20] was > 100 µM and the TGI [22] was > 100 µM. For the same molecule, the TGI [23] was > 100 µM, the TGI [32] was > 100 µM and the TGI [33] was > 100 µM. The TGI [56] was 35.6 µM, the TGI [36] was > 100 µM and the TGI [37] was > 100 µM. The TGI [38] was > 100 µM, the TGI [39] was > 100 µM and the TGI [40] was > 100 µM. The TGI [41] was > 100 µM, the TGI [42] was > 100 µM and the TGI [44] was > 100 µM. For the same molecule, the TGI [45] was > 100 µM, the TGI [47] was > 100 µM and the TGI [49] was > 100 µM. The TGI [50] was > 100 µM and the TGI [57] was > 100 µM.
